According to US20200407717A1, “METHODS OF MODULATING ANTISENSE ACTIVITY” (Ionis Pharmaceuticals, Inc., priority 2018, published 2020):

How the values were obtained:
Format in all cases: cell-based
A431 cells [1] = assay: Immunofluorescent microscopy co-localization
Experimental: Immunofluorescent staining was used to visualize clathrin, EGFR, and PS-ASOs in A431 cells. Compound no. 446654 has the sequence and structure Cy3-^mCesTesGes^mCesTesAdsGds^mCdsTds^mCdsTdsGdsGdsAdsTesTesTesGesAe (SEQ ID NO: 10). Cells were incubated with FITC labeled epidermal growth factor (EGF) or unlabeled EGF and compound no. 446654 for 30 minutes, then fixed with 4% paraformaldehyde for 20 minutes at room temperature and permeabilized with 0.05% saponin (Sigma) in PBS for 5 minutes. Cells were treated with blocking buffer (1 mg/mL BSA in PBS) for 30 minutes and then incubated with primary antibodies at room temperature for 2-4 hours or at 4° C. overnight. Primary antibodies used were ab30 (Abcam) for EGFR, ab21679 (Abcam) for clathrin, and antibody 610456 (BD Bioscience) for early endosome antigen 1 (EEA1). After three washes with PBS, cells were fluorescently labeled with secondary antibodies at room temperature for 1-2 hours. Secondary antibodies used were anti-mouse conjugated to AF488 (ab150077, Abcam) or AF647 (ab150079, Abcam), and anti-rabbit conjugated to AF488 (ab150113, Abcam) or AF647 (ab150115, Abcam). Nuclei were labeled with Hoechst 33342. Cells were then visualized with a confocal microscope (Olympus FV-1000), and single slices and Z-stack images were obtained. Co-localization between PS-ASOs and different organelles was analyzed using FV10-ASW 3.0 viewer software.

A431 cells [2] = assay: Localization in early and late endosomes after siRNA treatment; conditions: 20 cells; for % ASO EE/Total ASO: early endosomes (EEA1); for % ASO LE/Total ASO: late endosomes (LAMP1)
Experimental: EGFR levels in A431 cells were reduced using two siRNAs targeting EGFR, Assay ID 42833 and Assay ID 644 (ThermoFisher). A siRNA targeting luciferase was used for a control. Treatment of cells with the EGFR siRNA reduced EGFR protein levels more than 80%. Following siRNA treatment, cells were treated with additional compounds to test for antisense compound localization, activity, or uptake, as described below.
Following siRNA treatment, cells were treated with compound no. 446654 for two hours. EEA1 was labeled as in Example 2 and LAMP1 was labeled with an antibody. EEA1 is a marker for early endosomes and LAMP1 is a marker for late endosomes. Co-localization of compound no. 446654 with EEA1 and with LAMP1 was observed. The number of 446654 loci co-localized with EEA1 or LAMP1 was counted in 20 cells, and compared to the total number of 446654 loci. The difference observed with control siRNA treatment vs EGFR siRNA treatment shown in Table 22 is significant, as determined by the student T-test (p<0.05), whereas the difference shown in Table 23 was not determined to be significant by the student T-test.

HEK cells = assay: Uptake by flow cytometry, HEK cells
Experimental: Uptake of compound no. 446654 by A431 cells was measured by flow cytometry. A431 cells were treated with a growth factor for 4 hours prior to incubation with compound no. 446654 for 2 hours. Results are presented in the tables below as relative fluorescence units (RFU) and represent an average of three independent experiments.
Uptake of compound no. 446654 was measured via flow cytometry, as in Example 8, in HEK cells overexpressing EGFR and wild type HEK cells.

[3] = FITC-EGF, 30 minutes, EGFR and clathrin antibodies
[4] = FITC-EGF, EGFR and EEA1 antibodies
[5] = unlabeled EGF, 30 minutes, EGFR and clathrin antibodies
[6] = unlabeled EGF, EGFR and EEA1 antibodies

Substance: Cy3-^mCesTesGes^mCesTesAdsGds^mCdsTds^mCdsTdsGdsGdsAdsTesTesTesGesAe (antisense CTGCTAGCCTCTGGATTTGA; listed as DNA, chemistry not fully specified) [compound 446654, Cy3-labeled PS-ASO]
- co-localization with EGF (A431 cells [1]; [3]): observed within the cytoplasm and at the cell surface
- co-localization with clathrin (A431 cells [1]; [3]): observed at the cell surface
- co-localization with EEA1 (A431 cells [1]; [4]): observed within the cytoplasm
- co-localization with EGF (A431 cells [1]; [4]): observed both at the cell surface and within the cytoplasm
- co-localization with EGFR (A431 cells [1]; [5]): observed both at the cell surface and within the cytoplasm
- co-localization with clathrin (A431 cells [1]; [5]): observed at the cell surface
- co-localization with EEA1 (A431 cells [1]; [6]): observed in the cytoplasm and within the nucleus
- co-localization with EGFR (A431 cells [1]; [6]): observed at the cell surface, in the cytoplasm, and within the nucleus
- % ASO EE/Total ASO (A431 cells [2]; Control luciferase siRNA): 15%
- % ASO EE/Total ASO (A431 cells [2]; EGFR siRNA-1): 26%
- % ASO LE/Total ASO (A431 cells [2]; Control luciferase siRNA): 79%
- % ASO LE/Total ASO (A431 cells [2]; EGFR siRNA-1): 66%
- RFU (HEK cells; 0.25 μM, Overexpressing EGFR): 123 RFU
- RFU (HEK cells; 0.25 μM, Wild type HEK cells): 109 RFU
- RFU (HEK cells; 0.5 μM, Overexpressing EGFR): 163 RFU
- RFU (HEK cells; 0.5 μM, Wild type HEK cells): 143 RFU
- RFU (HEK cells; 1 μM, Overexpressing EGFR): 255 RFU
- RFU (HEK cells; 1 μM, Wild type HEK cells): 287 RFU
- uptake, effect of varying EGFR expression levels (HEK cells; HEK cells overexpressing EGFR vs wild type): did not affect
